Experimental data from ChEMBL document CHEMBL1138676, “Liver-selective glucocorticoid antagonists: a novel treatment for type 2 diabetes” (J Med Chem, 2004).

What was measured:
[1] = molecular target: T1, Glucocorticoid receptor (Homo sapiens, UniProt P04150); experiment: Inhibition of glucocorticoid receptor dependent alkaline phosphatase activity; type: functional
T1 sequence (P04150 whole entry): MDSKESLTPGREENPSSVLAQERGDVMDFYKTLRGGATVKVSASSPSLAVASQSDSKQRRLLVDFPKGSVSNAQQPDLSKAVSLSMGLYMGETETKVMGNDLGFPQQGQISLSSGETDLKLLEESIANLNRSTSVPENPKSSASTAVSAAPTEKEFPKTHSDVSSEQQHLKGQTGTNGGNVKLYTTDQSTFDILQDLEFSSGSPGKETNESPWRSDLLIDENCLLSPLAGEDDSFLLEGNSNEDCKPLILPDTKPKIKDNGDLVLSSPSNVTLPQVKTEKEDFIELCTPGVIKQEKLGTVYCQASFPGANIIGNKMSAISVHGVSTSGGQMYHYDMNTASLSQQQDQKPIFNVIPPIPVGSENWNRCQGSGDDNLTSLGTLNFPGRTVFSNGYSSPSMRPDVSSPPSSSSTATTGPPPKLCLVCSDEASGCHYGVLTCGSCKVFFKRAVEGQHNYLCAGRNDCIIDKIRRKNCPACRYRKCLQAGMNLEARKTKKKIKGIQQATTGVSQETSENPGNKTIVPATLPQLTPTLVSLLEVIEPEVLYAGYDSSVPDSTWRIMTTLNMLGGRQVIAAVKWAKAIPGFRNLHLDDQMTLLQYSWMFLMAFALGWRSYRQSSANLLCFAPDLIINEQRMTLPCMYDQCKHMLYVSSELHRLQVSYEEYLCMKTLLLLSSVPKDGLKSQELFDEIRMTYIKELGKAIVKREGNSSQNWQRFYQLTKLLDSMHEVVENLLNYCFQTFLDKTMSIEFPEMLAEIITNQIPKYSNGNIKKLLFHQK

[2] = molecular target: T1, Glucocorticoid receptor; experiment: Inhibition of human glucocorticoid receptor
[3] = Inhibitory activity against rat lymphocytes; set-up: concentration or dose not given beside the values
[4] = molecular target: Glucocorticoid receptor (Rattus norvegicus) (UniProt P06536); experiment: Inhibition of glucocorticoid receptor mediated tyrosine aminotransferase activity; set-up: concentration or dose not given beside the values; details: concentration not given here
[5] = molecular target: Glucocorticoid receptor (Rattus norvegicus) (UniProt P06536); experiment: Inhibition of glucocorticoid receptor mediated tyrosine amino transferase activity
[6] = molecular target: T2, Progesterone receptor (Homo sapiens, UniProt P06401); experiment: Inhibition of human progesterone receptor
T2 sequence (P06401 whole entry): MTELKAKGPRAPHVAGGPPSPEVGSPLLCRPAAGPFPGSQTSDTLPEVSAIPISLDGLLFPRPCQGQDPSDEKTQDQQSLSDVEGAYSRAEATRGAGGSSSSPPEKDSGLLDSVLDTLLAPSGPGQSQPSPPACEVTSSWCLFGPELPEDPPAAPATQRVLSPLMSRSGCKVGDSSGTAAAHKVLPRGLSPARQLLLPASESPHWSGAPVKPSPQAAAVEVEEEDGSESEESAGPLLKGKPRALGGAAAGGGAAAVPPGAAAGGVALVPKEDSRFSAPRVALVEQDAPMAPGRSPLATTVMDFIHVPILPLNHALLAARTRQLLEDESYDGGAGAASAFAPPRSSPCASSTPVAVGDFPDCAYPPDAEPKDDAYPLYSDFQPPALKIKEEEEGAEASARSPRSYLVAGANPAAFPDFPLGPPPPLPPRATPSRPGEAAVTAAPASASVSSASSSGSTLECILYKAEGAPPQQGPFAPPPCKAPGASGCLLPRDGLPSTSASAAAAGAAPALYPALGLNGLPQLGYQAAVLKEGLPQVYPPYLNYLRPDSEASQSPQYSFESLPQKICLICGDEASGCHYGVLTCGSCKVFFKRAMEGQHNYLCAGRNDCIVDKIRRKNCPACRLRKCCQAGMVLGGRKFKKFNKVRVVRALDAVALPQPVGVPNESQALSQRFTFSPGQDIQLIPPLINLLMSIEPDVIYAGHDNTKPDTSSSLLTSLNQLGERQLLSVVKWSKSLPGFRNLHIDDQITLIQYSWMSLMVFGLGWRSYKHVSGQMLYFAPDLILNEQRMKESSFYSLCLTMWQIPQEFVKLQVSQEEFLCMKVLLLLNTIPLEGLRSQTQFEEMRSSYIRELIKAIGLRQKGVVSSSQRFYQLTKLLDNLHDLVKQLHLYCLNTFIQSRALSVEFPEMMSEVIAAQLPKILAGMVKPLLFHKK

[7] = molecular target: T3, Androgen receptor (Homo sapiens, UniProt P10275)
T3 sequence (P10275 whole entry): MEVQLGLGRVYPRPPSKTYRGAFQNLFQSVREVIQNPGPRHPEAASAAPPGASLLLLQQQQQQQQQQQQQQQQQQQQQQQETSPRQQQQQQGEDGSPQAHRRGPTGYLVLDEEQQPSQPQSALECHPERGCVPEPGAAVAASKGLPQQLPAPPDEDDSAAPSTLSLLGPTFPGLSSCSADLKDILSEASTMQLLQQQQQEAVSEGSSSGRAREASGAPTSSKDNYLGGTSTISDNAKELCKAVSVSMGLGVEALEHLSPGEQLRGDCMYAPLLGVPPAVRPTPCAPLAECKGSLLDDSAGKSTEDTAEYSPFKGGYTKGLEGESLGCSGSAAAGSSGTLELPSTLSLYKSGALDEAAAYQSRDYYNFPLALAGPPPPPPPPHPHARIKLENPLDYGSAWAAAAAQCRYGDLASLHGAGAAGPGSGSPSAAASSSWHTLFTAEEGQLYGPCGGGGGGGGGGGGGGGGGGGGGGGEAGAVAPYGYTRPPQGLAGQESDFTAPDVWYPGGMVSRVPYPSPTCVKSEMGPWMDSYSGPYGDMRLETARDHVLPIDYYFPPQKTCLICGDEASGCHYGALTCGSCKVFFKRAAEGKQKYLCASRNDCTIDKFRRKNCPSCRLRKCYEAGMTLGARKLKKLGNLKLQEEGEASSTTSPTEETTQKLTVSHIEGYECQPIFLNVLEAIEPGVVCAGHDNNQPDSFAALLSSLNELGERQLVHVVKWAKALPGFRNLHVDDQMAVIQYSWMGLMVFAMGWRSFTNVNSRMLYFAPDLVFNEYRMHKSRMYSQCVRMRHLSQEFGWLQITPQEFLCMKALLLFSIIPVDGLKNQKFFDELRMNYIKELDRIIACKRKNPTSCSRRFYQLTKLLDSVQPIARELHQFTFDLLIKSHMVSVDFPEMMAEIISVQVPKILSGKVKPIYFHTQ
Description: Inhibition of human androgen receptor

[8] = molecular target: T4, Mineralocorticoid receptor (Homo sapiens, UniProt P08235)
T4 sequence (P08235 whole entry): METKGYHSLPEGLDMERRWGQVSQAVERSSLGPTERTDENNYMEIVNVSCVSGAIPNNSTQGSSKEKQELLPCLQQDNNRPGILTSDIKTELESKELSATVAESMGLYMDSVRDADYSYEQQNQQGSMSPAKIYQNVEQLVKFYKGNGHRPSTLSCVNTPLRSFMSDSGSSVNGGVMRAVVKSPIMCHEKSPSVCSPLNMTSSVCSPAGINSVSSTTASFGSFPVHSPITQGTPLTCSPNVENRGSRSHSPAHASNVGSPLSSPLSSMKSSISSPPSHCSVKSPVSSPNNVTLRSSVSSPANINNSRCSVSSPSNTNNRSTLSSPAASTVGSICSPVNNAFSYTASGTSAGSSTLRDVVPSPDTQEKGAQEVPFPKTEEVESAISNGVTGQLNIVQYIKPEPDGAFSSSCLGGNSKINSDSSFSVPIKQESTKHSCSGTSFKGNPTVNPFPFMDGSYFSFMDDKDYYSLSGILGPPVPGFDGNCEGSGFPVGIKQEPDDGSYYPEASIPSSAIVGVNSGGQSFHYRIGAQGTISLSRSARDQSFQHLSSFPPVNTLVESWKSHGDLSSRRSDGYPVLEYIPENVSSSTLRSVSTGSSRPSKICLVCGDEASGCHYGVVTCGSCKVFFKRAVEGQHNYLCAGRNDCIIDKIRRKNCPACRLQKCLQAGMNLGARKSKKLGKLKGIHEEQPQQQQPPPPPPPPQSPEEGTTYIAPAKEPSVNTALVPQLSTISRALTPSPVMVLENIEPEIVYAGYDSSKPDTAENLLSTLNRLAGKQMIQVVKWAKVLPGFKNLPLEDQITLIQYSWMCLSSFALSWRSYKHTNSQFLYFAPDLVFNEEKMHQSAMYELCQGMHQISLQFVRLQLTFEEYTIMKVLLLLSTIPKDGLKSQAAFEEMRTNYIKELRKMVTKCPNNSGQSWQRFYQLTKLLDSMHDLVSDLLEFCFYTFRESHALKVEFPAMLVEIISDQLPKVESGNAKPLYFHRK
Description: Inhibition of human Mineralocorticoid receptor

Sequence of Glucocorticoid receptor (Rattus norvegicus) (P06536 whole entry, looked up): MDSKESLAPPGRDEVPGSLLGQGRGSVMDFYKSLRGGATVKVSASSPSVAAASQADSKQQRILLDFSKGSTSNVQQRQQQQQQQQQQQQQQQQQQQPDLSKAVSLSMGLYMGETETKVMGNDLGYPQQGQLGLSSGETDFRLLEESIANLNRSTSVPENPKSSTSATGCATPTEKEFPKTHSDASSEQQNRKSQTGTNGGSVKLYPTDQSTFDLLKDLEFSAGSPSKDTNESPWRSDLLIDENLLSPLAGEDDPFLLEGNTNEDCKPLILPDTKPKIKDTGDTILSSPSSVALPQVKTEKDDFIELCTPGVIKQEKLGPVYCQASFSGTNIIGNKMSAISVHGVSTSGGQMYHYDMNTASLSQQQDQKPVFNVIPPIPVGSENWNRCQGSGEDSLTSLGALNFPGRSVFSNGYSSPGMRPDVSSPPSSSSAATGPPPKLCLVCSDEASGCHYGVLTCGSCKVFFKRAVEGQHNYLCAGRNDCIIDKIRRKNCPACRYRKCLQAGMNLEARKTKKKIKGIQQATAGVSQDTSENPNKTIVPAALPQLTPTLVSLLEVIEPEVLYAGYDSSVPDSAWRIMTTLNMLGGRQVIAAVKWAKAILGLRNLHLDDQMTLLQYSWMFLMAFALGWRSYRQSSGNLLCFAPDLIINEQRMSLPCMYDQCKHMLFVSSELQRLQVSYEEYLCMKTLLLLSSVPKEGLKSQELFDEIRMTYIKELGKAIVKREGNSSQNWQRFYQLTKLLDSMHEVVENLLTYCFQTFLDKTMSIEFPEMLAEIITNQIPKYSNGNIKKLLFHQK

Row | Ki [1] | Ki [2] | inhibition [4] | Ki [5] | Ki [6] | Ki [7] | Ki [8] | SMILES | Inhibition [3]
1 | 4.3 nM | 0.11 nM | 6% |  |  |  |  | C#C[C@]1(O)CC[C@H]2[C@@H]3CCC4=CC(=O)CCC4=C3[C@@H](c3ccc(N(C)CCC[C@@]4(O)CC[C@@]5(C)[C@H](C[C@@H](O)[C@@H]6[C@@H]5C[C@H](O)[C@]5(C)[C@@H]([C@H](C)CCC(=O)O)CC[C@@H]65)C4)cc3)C[C@@]21C | 0%
2 |  |  | 49% |  |  |  |  | C#C[C@]1(O)CC[C@H]2[C@@H]3CCC4=CC(=O)CCC4=C3[C@@H](c3ccc(N(C)CCOC4CC[C@@]5(C)[C@@H](C4)C[C@@H](O)[C@@H]4[C@@H]5C[C@H](O)[C@]5(C)[C@@H]([C@H](C)CCC(=O)O)CC[C@@H]45)cc3)C[C@@]21C (stereo in doubt; form 1) | 
3 |  |  | 5% |  |  |  |  | CC#C[C@]1(O)CC[C@H]2[C@@H]3CCC4=CC(=O)CC[C@]4(Cc4ccc(CCCO[C@H]5CC[C@@]6(C)[C@@H](C5)C[C@@H](O)[C@@H]5[C@@H]6C[C@H](O)[C@]6(C)[C@@H]([C@H](C)CCC(=O)O)CC[C@@H]56)cc4)C3=CC[C@@]21C | -16%
4 | 0.76 nM | 0.18 nM |  |  |  |  |  | C#C[C@]1(O)CC[C@H]2[C@@H]3CCC4=CC(=O)CCC4=C3[C@@H](c3ccc(N(C)CCOC4CC[C@@]5(C)[C@@H](C4)C[C@@H](O)[C@@H]4[C@@H]5CC[C@]5(C)[C@@H]([C@H](C)CCC(=O)O)CC[C@@H]45)cc3)C[C@@]21C (stereo partly drawn) | 
5 | 12 nM | 0.21 nM | 66% | 90 nM | 1.7 nM | 4.8 nM | 170 nM | C#C[C@]1(O)CC[C@H]2[C@@H]3CCC4=CC(=O)CCC4=C3[C@@H](c3ccc(N(C)CCOCCO[C@@H]4CC[C@@]5(C)[C@@H](C4)C[C@@H](O)[C@@H]4[C@@H]5C[C@H](O)[C@]5(C)[C@@H]([C@H](C)CCC(=O)O)CC[C@@H]45)cc3)C[C@@]21C | -2%
6 |  |  | 72% |  |  |  |  | C#C[C@]1(O)CC[C@H]2[C@@H]3CCC4=CC(=O)CCC4=C3[C@@H](c3ccc(N(C)CCOC4CC[C@@]5(C)[C@@H](C4)C[C@@H](O)[C@@H]4[C@@H]5C[C@H](O)[C@]5(C)[C@@H]([C@H](C)CCC(=O)O)CC[C@@H]45)cc3)C[C@@]21C (stereo in doubt; form 2) | 

More lines, now with the values behind:

Row | SMILES | Ki [1] | Ki [2] | inhibition [4] | Ki [5] | Ki [6] | Ki [7] | Ki [8] | Inhibition [3]
7 | C#C[C@]1(O)CC[C@H]2[C@@H]3CCC4=CC(=O)CCC4=C3[C@@H](c3ccc(N(C)CCOC4CC[C@@]5(C)[C@H](CC[C@@H]6[C@@H]5CC[C@]5(C)[C@@H]([C@H](C)CCC(=O)O)CC[C@@H]65)C4)cc3)C[C@@]21C (stereo partly drawn) | 2.7 nM | 0.22 nM |  |  |  |  |  | 
8 | CC#C[C@]1(O)CC[C@H]2[C@@H]3CCC4=CC(=O)CCC4=C3[C@@H](c3ccc(N(C)CCO[C@H]4CC[C@@]5(C)[C@@H](C4)C[C@@H](O)[C@@H]4[C@@H]5C[C@H](O)[C@]5(C)[C@@H]([C@H](C)CCC(=O)NCCS(=O)(=O)O)CC[C@@H]45)cc3)C[C@@]21C |  |  |  |  |  |  |  | -6%
9 | C#C[C@]1(O)CC[C@H]2[C@@H]3CCC4=CC(=O)CCC4=C3[C@@H](c3ccc(N(C)C(=O)CNC(=O)O[C@H]4C[C@H]5[C@@H]([C@H](O)C[C@@H]6C[C@H](O)CC[C@@]65C)[C@@H]5CC[C@H]([C@H](C)CCC(=O)O)[C@@]45C)cc3)C[C@@]21C | 100 nM | 6.5 nM |  | 500 nM |  |  |  | 
10 | C#C[C@]1(O)CC[C@H]2[C@@H]3CCC4=CC(=O)CCC4=C3[C@@H](c3ccc(N(C)CCOC4CC[C@@]5(C)[C@H](CC[C@@H]6[C@@H]5C[C@H](O)[C@]5(C)[C@@H]([C@H](C)CCC(=O)O)CC[C@@H]65)C4)cc3)C[C@@]21C (stereo partly drawn) | 0.38 nM | 0.16 nM | 69% |  |  |  |  | 22%
11 | C#C[C@]1(O)CC[C@H]2[C@@H]3CCC4=CC(=O)CCC4=C3[C@@H](c3ccc(N(C)CCNC(=O)O[C@@H]4C[C@@H]5CC(O)CC[C@]5(C)[C@H]5C[C@H](O)[C@]6(C)[C@@H]([C@H](C)CCC(=O)O)CC[C@H]6[C@H]45)cc3)C[C@@]21C (stereo partly drawn) | 37 nM | 1.2 nM |  | 730 nM | 4.6 nM | 18 nM |  | 
